Experimental data: ChEMBL document CHEMBL3085722, “Stereochemical assignment of the fungal metabolites pestalotiopsones D and E through enantiopure synthesis” (J Nat Prod, 2013)
≈ marks a conversion by molar mass, not a printed value.

How the values were obtained:
Assay type in all cases: functional, organism-based
[1] = tested on: Escherichia coli; assay: Antibacterial activity against Escherichia coli after 18 hrs by turbidity assay
[2] = tested on: Staphylococcus epidermidis; assay: Antibacterial activity against Staphylococcus epidermidis after 18 hrs by turbidity assay
[3] = tested on: Mycolicibacterium smegmatis; assay: Antibacterial activity against Mycobacterium smegmatis after 18 hrs by turbidity assay
[4] = tested on: Pseudomonas aeruginosa; assay: Antibacterial activity against Pseudomonas aeruginosa after 18 hrs by turbidity assay

Compound	MIC [1]	MIC [2]	MIC [3]	MIC [4]	IC50 [1]	IC50 [2]	IC50 [3]	IC50 [4]
COC(=O)Cc1cc(O)cc2oc(CCCCC[C@H](C)O)cc(=O)c12	> 500 µg/mL	> 500 µg/mL	> 500 µg/mL	> 500 µg/mL	> 500 µg/mL	> 500 µg/mL	> 500 µg/mL	> 500 µg/mL
NC[C@H]1O[C@H](O[C@H]2[C@H](O)[C@@H](O[C@H]3O[C@H](CO)[C@@H](O)[C@H](N)[C@H]3O)[C@H](N)C[C@@H]2N)[C@H](O)[C@@H](O)[C@@H]1O [KANAMYCIN]	–	–	–	–	< 1 µg/mL	90 µg/mL (≈ 186 µM)	< 1 µg/mL	209 µg/mL (≈ 431 µM)
COC(=O)Cc1cc(OC)cc2c1C(=O)CC(CCCCC[C@@H](C)OC(C)=O)O2 (mixture of isomers)	> 500 µg/mL	> 500 µg/mL	> 500 µg/mL	> 500 µg/mL	–	–	–	–
COC(=O)Cc1cc(OC)cc2oc(CCCCC[C@@H](C)OC(C)=O)cc(=O)c12	> 500 µg/mL	> 500 µg/mL	> 500 µg/mL	> 500 µg/mL	–	–	–	–

Second part, the molecule after the results:

MIC [1]	MIC [2]	MIC [3]	MIC [4]	IC50 [1]	IC50 [2]	IC50 [3]	IC50 [4]	Compound
> 500 µg/mL	> 500 µg/mL	> 500 µg/mL	> 500 µg/mL	–	–	–	–	COC(=O)Cc1cc(O)cc2oc(CCCCC[C@@H](C)O)cc(=O)c12
> 500 µg/mL	> 500 µg/mL	> 500 µg/mL	> 500 µg/mL	> 500 µg/mL	> 500 µg/mL	492 µg/mL	445 µg/mL	COC(=O)Cc1cc(OC)cc2c1C(=O)CC(CCCCC[C@H](C)OC(C)=O)O2 (mixture of isomers)
> 500 µg/mL	> 500 µg/mL	> 500 µg/mL	> 500 µg/mL	–	–	–	–	CCOC(=O)Cc1cc(O)cc2oc(CCCCC[C@@H](C)O)cc(=O)c12
> 500 µg/mL	> 500 µg/mL	> 500 µg/mL	> 500 µg/mL	> 500 µg/mL	> 500 µg/mL	484 µg/mL (≈ 1340 µM)	440 µg/mL (≈ 1210 µM)	CCOC(=O)Cc1cc(O)cc2oc(CCCCC[C@H](C)O)cc(=O)c12
> 500 µg/mL	> 500 µg/mL	> 500 µg/mL	> 500 µg/mL	> 500 µg/mL	> 500 µg/mL	> 500 µg/mL	465 µg/mL (≈ 1150 µM)	COC(=O)Cc1cc(OC)cc2oc(CCCCC[C@H](C)OC(C)=O)cc(=O)c12
